Measured values from US20260125378A2, “Heterocyclic Compounds” (BeOne Medicines I GmbH, priority 2023, published 2026).

Columns and labels:
[1] = target: T1, Full length DGKζ (in-house protein M1-V929) (Homo sapiens, UniProt Q13574); assay: Biochemical DGK IC50 assay (ADP-Glo, lipid micelle substrate), DGKζ; settings: 1 hour preincubation, 1 hour reaction, room temperature
T1 construct: His (N); TEV site (N); made in house; host or cells: Sf9 insect cells (Bac-to-Bac baculovirus)
Procedure, shortened: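 Enzyme: full-length human DGKζ M1-V929, produced in baculovirus-infected Sf9 cells; substrate DAG/PS micelles. Buffer 50 mM HEPES, 10 mM MgCl2, 0.01 mM CaCl2, 0.1 mM Na3VO4.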

[2] = target: T2, Full length DGKα (D21-10BG, SignalChem) (Homo sapiens, UniProt P23743); assay: Biochemical DGK IC50 assay (ADP-Glo, lipid micelle substrate), DGKα; settings: 1 hour preincubation, 1 hour reaction, room temperature
T2 construct: Full length DGKα (D21-10BG, SignalChem); purchased SignalChem D21-10BG
T2 sequence (P23743 whole entry): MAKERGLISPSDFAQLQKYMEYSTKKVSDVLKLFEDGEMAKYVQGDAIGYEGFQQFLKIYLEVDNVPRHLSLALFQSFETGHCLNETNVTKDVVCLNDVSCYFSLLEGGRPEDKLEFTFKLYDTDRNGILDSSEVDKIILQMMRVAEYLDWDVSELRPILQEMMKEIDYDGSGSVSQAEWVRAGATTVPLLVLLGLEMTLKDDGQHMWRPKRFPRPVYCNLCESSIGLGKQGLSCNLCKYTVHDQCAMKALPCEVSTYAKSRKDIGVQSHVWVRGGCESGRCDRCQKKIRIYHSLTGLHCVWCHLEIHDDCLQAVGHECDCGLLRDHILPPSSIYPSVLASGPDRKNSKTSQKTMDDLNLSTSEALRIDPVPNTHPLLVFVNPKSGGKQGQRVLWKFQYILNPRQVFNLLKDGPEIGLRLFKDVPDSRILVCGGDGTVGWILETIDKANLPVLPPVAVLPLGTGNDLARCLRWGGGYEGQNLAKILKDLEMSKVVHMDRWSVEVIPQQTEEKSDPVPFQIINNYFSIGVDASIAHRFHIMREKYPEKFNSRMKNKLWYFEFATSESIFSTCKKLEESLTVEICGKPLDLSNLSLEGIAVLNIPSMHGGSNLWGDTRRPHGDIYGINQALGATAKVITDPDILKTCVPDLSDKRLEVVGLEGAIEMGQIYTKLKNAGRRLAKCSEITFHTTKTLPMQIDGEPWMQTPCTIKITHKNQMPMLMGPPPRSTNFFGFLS
Procedure, shortened: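 ADP-Glo luminescence quantified ADP produced after a 1 h room-temperature reaction of full-length DGKα on DAG/PS micelles, in HEPES buffer containing MgCl2, CaCl2, vanadate, BSA and Tween-20. IC50 values derive from activity inhibition over a compound concentration series.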

T1 sequence (Q13574 1-929 isoform Q13574-4): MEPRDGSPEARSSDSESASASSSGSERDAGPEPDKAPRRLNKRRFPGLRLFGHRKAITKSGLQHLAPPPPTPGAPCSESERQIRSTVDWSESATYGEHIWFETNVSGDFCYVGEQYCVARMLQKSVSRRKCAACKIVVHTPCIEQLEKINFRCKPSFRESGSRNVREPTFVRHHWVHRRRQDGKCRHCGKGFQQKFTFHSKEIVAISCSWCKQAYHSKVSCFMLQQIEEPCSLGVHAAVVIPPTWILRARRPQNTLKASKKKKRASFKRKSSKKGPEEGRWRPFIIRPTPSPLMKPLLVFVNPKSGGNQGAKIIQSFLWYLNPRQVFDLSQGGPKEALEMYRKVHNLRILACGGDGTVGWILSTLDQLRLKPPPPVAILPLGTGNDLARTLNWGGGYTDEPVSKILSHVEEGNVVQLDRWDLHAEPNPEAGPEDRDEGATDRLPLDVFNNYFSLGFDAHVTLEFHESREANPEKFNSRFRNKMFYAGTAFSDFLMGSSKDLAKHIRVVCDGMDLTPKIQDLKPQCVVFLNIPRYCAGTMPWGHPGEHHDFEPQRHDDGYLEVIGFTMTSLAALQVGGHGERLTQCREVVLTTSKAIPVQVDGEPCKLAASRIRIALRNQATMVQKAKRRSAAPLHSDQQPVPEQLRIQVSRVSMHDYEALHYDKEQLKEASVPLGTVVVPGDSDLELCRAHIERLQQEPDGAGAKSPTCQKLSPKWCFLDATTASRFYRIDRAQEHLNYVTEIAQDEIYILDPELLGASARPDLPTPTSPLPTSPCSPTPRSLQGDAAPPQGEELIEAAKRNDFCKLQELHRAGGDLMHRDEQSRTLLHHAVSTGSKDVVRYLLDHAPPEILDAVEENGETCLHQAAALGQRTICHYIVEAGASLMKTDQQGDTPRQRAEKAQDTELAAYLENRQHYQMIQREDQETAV

Row | SMILES | IC50 [1] [nM] | IC50 [2] [nM]
1 | CCn1c(CC#N)nc2c(N3C[C@@H](C)N(C(C)c4ccc5c(c4)C(=O)N(C)CC5)C[C@@H]3C)nc(=O)n(C)c21 (stereo partly drawn) [Compound A93, 2-(6-((2S,5R)-2,5-dimethyl-4-(1-(2-methyl-1-oxo-1,2,3,4-tetrahydroisoquinolin-7-yl)ethyl)piperazin-1-yl)-9-ethyl-3-methyl-2-oxo-3,9-dihydro-2H-purin-8-yl)acetonitrile] | 414 | > 150000
2 | CCn1c(CC#N)nc2c(N3C[C@@H](C)N(C(C)c4cccc(OC)c4)C[C@@H]3C)nc(=O)n(C)c21 (stereo partly drawn) [Compound A46, 2-(9-ethyl-6-((2S,5R)-4-(1-(3-methoxyphenyl)ethyl)-2,5-dimethylpiperazin-1-yl)-3-methyl-2-oxo-3,9-dihydro-2H-purin-8-yl)acetonitrile] | 301 | > 150000
3 | CCn1c(CC#N)nc2c(N3C[C@@H](C)N(C(C)c4cccc(N5CC6(COC6)C5)c4)C[C@@H]3C)nc(=O)n(C)c21 (stereo partly drawn) [Compound A140, 2-(6-((2S,5R)-4-(1-(3-(2-oxa-6-azaspiro[3.3]heptan-6-yl)phenyl)ethyl)-2,5-dimethylpiperazin-1-yl)-9-ethyl-3-methyl-2-oxo-3,9-dihydro-2H-purin-8-yl)acetonitrile] | 594 | > 150000
4 | CC#CC(c1ccc(C)cc1)N1C[C@H](C)N(c2nc(=O)n(C)c3c2nc(CC#N)n3CC)C[C@H]1C (stereo partly drawn) [Compound A145, 2-(6-((2S,5R)-2,5-dimethyl-4-(1-(p-tolyl)but-2-yn-1-yl)piperazin-1-yl)-9-ethyl-3-methyl-2-oxo-3,9-dihydro-2H-purin-8-yl)acetonitrile] | 480 | 5620
5 | CC(c1ccc(C(F)(F)F)cn1)N1C[C@H](C)N(c2nc(=O)n(C)c3c2nc(CC#N)n3C)C[C@H]1C (single isomer, unassigned) [Compound A148a] | 1100 | 3630
6 | Cc1ccc(C(C)N2C[C@H](C)N(c3cc(=O)n(C)c4c3nc(CC#N)n4C)C[C@H]2C)c(C(F)(F)F)c1 (single isomer, unassigned) [Compound A8a] | 1480 | > 10000
7 | CCn1c(CC#N)nc2c(N3C[C@@H](C)N(C(C)c4cccc(C(F)(F)F)n4)C[C@@H]3C)nc(=O)n(C)c21 (single isomer, unassigned) [Compound A118a] | 4820 | > 150000
8 | CCn1c(CC#N)nc2c(N3C[C@@H](C)N(C(C)c4cccc(C(C)(C)O)c4)C[C@@H]3C)nc(=O)n(C)c21 (stereo partly drawn) [Compound A111, 2-(9-ethyl-6-((2S,5R)-4-(1-(3-(2-hydroxypropan-2-yl)phenyl)ethyl)-2,5-dimethylpiperazin-1-yl)-3-methyl-2-oxo-3,9-dihydro-2H-purin-8-yl)acetonitrile] | 771 | > 150000
9 | CCn1c(CC#N)nc2c(N3C[C@@H](C)N(C(C)c4ccc5c(n4)OC(C)CO5)C[C@@H]3C)nc(=O)n(C)c21 (stereo partly drawn) [Compound A89, 2-(6-((2S,5R)-2,5-dimethyl-4-(1-(3-methyl-2,3-dihydro-[1,4]dioxino[2,3-b]pyridin-6-yl)ethyl)piperazin-1-yl)-9-ethyl-3-methyl-2-oxo-3,9-dihydro-2H-purin-8-yl)acetonitrile] | 334 | > 150000
10 | CCn1c(CC#N)nc2c(N3C[C@@H](C)N(C(C)c4ccnc5c4OCCC5(F)F)C[C@@H]3C)nc(=O)n(C)c21 (single isomer, unassigned) [Compound A103b] | 52 | > 150000
11 | Cc1ccc(C(C)N2C[C@H](C)N(c3cc(=O)n(C)c4c3nc(CC#N)n4C)C[C@H]2C)cc1 (single isomer, unassigned) [Compound A5a] | 878 | 5770
12 | CC(c1ccc2c(c1)OC(C)(C)O2)N1C[C@H](C)N(c2nc(=O)n(C)c3c2nc(CC#N)n3C)C[C@H]1C (single isomer, unassigned) [Compound A98b] | 262 | 19700
13 | CC(c1ccc2c(c1)OCCO2)N1C[C@H](C)N(c2nc(=O)n(C)c3c2nc(CC#N)n3C)C[C@H]1C (single isomer, unassigned) [Compound A58b] | 1660 | 90800
14 | Cc1ccc(C(C)N2C[C@H](C)N(c3c(F)c(=O)n(C)c4c3nc(CC#N)n4C)C[C@H]2C)c(C(F)(F)F)c1 (single isomer, unassigned) [Compound A15a] | 1410 | > 10000
15 | CC(c1cccnc1C(F)(F)F)N1C[C@H](C)N(c2cc(=O)n(C)c3c2nc(CC#N)n3C)C[C@H]1C (single isomer, unassigned) [Compound A7a] | 3110 | > 10000
16 | CC(c1ccc2nccnc2c1)N1C[C@H](C)N(c2cc(=O)n(C)c3sc(CC#N)nc23)C[C@H]1C (single isomer, unassigned) [Compound A194b] | 873 | 7020
17 | CCn1c(CC#N)nc2c(N3C[C@@H](C)N(C(C)c4ccc5c(=O)cc(C)oc5c4)C[C@@H]3C)nc(=O)n(C)c21 (stereo partly drawn) [Compound A191, 2-(6-((2S,5R)-2,5-dimethyl-4-(1-(2-methyl-4-oxo-4H-chromen-7-yl)ethyl)piperazin-1-yl)-9-ethyl-3-methyl-2-oxo-3,9-dihydro-2H-purin-8-yl)acetonitrile] | 78 | 40900
18 | CCn1c(CC#N)nc2c(N3C[C@@H](C)N(C(C)c4cc(F)c5c(c4)OC(C)(C)O5)C[C@@H]3C)nc(=O)n(C)c21 (mixture of isomers) [Compound A173, 2-(9-ethyl-6-((2S,5R)-4-(1-(7-fluoro-2,2-dimethylbenzo[d][1,3]dioxol-5-yl)ethyl)-2,5-dimethylpiperazin-1-yl)-3-methyl-2-oxo-3,9-dihydro-2H-purin-8-yl)acetonitrile] | 44 | 143000
19 | CCn1c(CC#N)nc2c(N3C[C@@H](C)N(C(C)c4cc5c(cc4F)OC(C)(C)O5)C[C@@H]3C)nc(=O)n(C)c21 (single isomer, unassigned) [Compound A174a] | 1030 | 51200
20 | COc1cc(F)ccc1C(C)N1C[C@H](C)N(c2cc(=O)n(C)c3c2nc(CC#N)n3C)C[C@H]1C (single isomer, unassigned) [Compound A4a] | 566 | > 10000

Stronger by IC50 [1], values ahead:

Row | IC50 [1] [nM] | IC50 [2] [nM] | SMILES
21 | 42 | 61900 | CCn1c(CC#N)nc2c(N3C[C@@H](C)N(C(C)c4cccc(C(F)(F)F)c4)C[C@@H]3C)nc(=O)n(C)c21 (mixture of isomers) [Compound A42, 2-(6-((2S,5R)-2,5-dimethyl-4-(1-(3-(trifluoromethyl)phenyl)ethyl)piperazin-1-yl)-9-ethyl-3-methyl-2-oxo-3,9-dihydro-2H-purin-8-yl)acetonitrile]
22 | 35 | 97600 | CC(c1cccnc1C(F)(F)F)N1C[C@H](C)N(c2cc(=O)n(C)c3c2nc(CC#N)n3C)C[C@H]1C (single isomer, unassigned) [Compound A7b]
23 | 24 | 78700 | CCn1c(CC#N)nc2c(N3C[C@@H](C)N(C(C)c4cccc(C(F)(F)F)c4)C[C@@H]3C)nc(=O)n(C)c21 (single isomer, unassigned) [Compound A42a]
24 | 24 | 71800 | CCn1c(CC#N)nc2c(N3C[C@@H](C)N(C(C)c4nc5c(cc4F)OCC(C)(C)O5)C[C@@H]3C)nc(=O)n(C)c21 (single isomer, unassigned) [Compound A161a]
25 | 17 | > 150000 | CCn1c(CC#N)nc2c(N3C[C@@H](C)N(C(C)c4ccc5c(n4)C(C)(C)CO5)C[C@@H]3C)nc(=O)n(C)c21 (stereo partly drawn) [Compound A181, 2-(6-((2S,5R)-4-(1-(3,3-dimethyl-2,3-dihydrofuro[3,2-b]pyridin-5-yl)ethyl)-2,5-dimethylpiperazin-1-yl)-9-ethyl-3-methyl-2-oxo-3,9-dihydro-2H-purin-8-yl)acetonitrile]
26 | 14 | 4750 | CC[C@H]1CN(C(C)c2ccc3c(c2)OC(C)(C)CO3)[C@H](CC)CN1c1nc(=O)n(C)c2c1nc(CC#N)n2C (single isomer, unassigned) [Compound A64b]
27 | 10 | 118000 | CC[C@H]1CN(C(C)c2ccc3c(c2)OC(C)(C)CO3)[C@H](CC)CN1c1nc(=O)n(C)c2c1nc(CC#N)n2CC (stereo partly drawn) [Compound A67, 2-(6-((2S,5R)-4-(1-(3,3-dimethyl-2,3-dihydrobenzo[b][1,4]dioxin-6-yl)ethyl)-2,5-diethylpiperazin-1-yl)-9-ethyl-3-methyl-2-oxo-3,9-dihydro-2H-purin-8-yl)acetonitrile]
28 | 8 | 63200 | Cc1cnc2ccc(C(C)N3C[C@H](C)N(c4c(F)c(=O)n(C)c5c4nc(CC#N)n5C)C[C@H]3C)cc2n1 (single isomer, unassigned) [Compound A23a]
29 | 7 | > 150000 | CCn1c(CC#N)nc2c(N3C[C@@H](C)N(C(C)c4ccc5c(c4)OC(C)(C)CC5=O)C[C@@H]3C)nc(=O)n(C)c21 (stereo partly drawn) [Compound A81, 2-(6-((2S,5R)-4-(1-(2,2-dimethyl-4-oxochroman-7-yl)ethyl)-2,5-dimethylpiperazin-1-yl)-9-ethyl-3-methyl-2-oxo-3,9-dihydro-2H-purin-8-yl)acetonitrile]
30 | 4 | 136000 | CC(OC(F)F)c1cc(F)ccc1C(C)N1C[C@H](C)N(c2nc(=O)n(C)c3c2nc(CC#N)n3C)C[C@H]1C (single isomer, unassigned) [Compound A29b]
31 | 3 | 14000 | CC[C@H]1CN(C(C)c2ccc3ncc(C)nc3c2)[C@H](CC)CN1c1nc(=O)n(C)c2c1nc(CC#N)n2C (single isomer, unassigned) [Compound A51a]
